Measured values from the supplement of paper PMC11208160.

Experiment: recombinant UMI read abundance after kanamycin selection (control-corrected) (log10(CPM+1)); higher = more efficient recombination; extreme values may be limits of the assay; sequences stand for … in AGTGCAGAGAAAATCGGCCAGTTTTCTCTGCCTGCAGTCCGCATGCCGTGGGACCCCTTGGGTTCTAACCTGTTGCCTAGATTTATGCAGCGGACTGCCTTTCTCCCAAAGTGATAAACCGG…AGGTTGGTTTCACT; site = the 11-nt donor
Experimental: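 Pooled E. coli donor-specificity screen for the IS621 bridge recombinase. Each library member carries a reprogrammed 11-nt donor and a full-length LE bridge RNA expressed in cis from the natural promoter, with a paired donor-binding loop (8-nt LDG + 4-nt RDG) and a target-binding loop fixed to T5. It is co-electroporated with a T5 target plasmid; recombinase is induced with 0.07 mM IPTG and recombinants are selected on kanamycin. UMIs are counted as CPM, averaged over two biological replicates and corrected by the unselected control. Molecule = full bridge RNA written as DNA, built from the T5 scaffold: LDG = donor specificity nt 1-8, RDG = reverse complement of nt 8-11.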
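Note: IS621 bridge recombinase in Escherichia coli cells against a fixed T5 target plasmid.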

| Sequence | recombinant UMI read abundance (log10) |
| --- | --- |
| ACACTCCCATGGACCGGTTTTCCCGGTAATCCGTATTTGCG (site CTGACGACTAC) | 0.0266 |
| ACACTGGCATGGACCGGTTTTCCCGGTAATCCGTATTTGAG (site ACACTGGCTCT) | 1.38 |
| ACAGATCCATGGACCGGTTTTCCCGGTAATCCGTATTTGAC (site ACAAATCCTGT) | 0 |
| ACAGATCCATGGACCGGTTTTCCCGGTAATCCGTATTTGAC (site ACACATCCTGT) | 0 |
| ACAGATCCATGGACCGGTTTTCCCGGTAATCCGTATTTGAC (site ACAGATCCTGT) | 0.651 |
| ACAGATCCATGGACCGGTTTTCCCGGTAATCCGTATTTGAC (site ACATATCCTGT) | 0.985 |
| ACAGCATCATGGACCGGTTTTCCCGGTAATCCGTATTTGCA (site ACAGAATCTTG) | 0.803 |
| ACAGCATCATGGACCGGTTTTCCCGGTAATCCGTATTTGCA (site ACAGCATCTTG) | 2.11 |
| ACAGCATCATGGACCGGTTTTCCCGGTAATCCGTATTTGCA (site ACAGGATCTTG) | 0 |
| ACAGCATCATGGACCGGTTTTCCCGGTAATCCGTATTTGCA (site ACAGTATCTTG) | 1.73 |
| ACAGCTTCATGGACCGGTTTTCCCGGTAATCCGTATTTGGC (site ACAGCTTCTGC) | 3.35 |
| ACAGGACCATGGACCGGTTTTCCCGGTAATCCGTATTTGCA (site ACAGGACCTTG) | 0 |
| ACAGGACCATGGACCGGTTTTCCCGGTAATCCGTATTTGCA (site ACAGTATCTTG) | 1.52 |
| ACAGGATCATGGACCGGTTTTCCCGGTAATCCGTATTTGAA (site ACAGGATCTTT) | 2.93 |
| ACAGGATCATGGACCGGTTTTCCCGGTAATCCGTATTTGAA (site ACAGTATCTTG) | 0 |
| ACAGGTGCATGGACCGGTTTTCCCGGTAATCCGTATTTGAT (site ACAGGTGCTAT) | 2.2 |
| ACAGGTGCATGGACCGGTTTTCCCGGTAATCCGTATTTGAT (site CCAGGTGCTAT) | 2.2 |
| ACAGGTGCATGGACCGGTTTTCCCGGTAATCCGTATTTGAT (site GCAGGTGCTAT) | 0.572 |

| Sequence | recombinant UMI read abundance (log10) |
| --- | --- |
| ACAGGTGCATGGACCGGTTTTCCCGGTAATCCGTATTTGAT (site TCAGGTGCTAT) | 1.78 |
| ACAGTAACATGGACCGGTTTTCCCGGTAATCCGTATTTGCA (site ACAGTAACTTG) | 2.83 |
| ACAGTAACATGGACCGGTTTTCCCGGTAATCCGTATTTGCA (site ACAGTACCTTG) | 0 |
| ACAGTAACATGGACCGGTTTTCCCGGTAATCCGTATTTGCA (site ACAGTAGCTTG) | 1.39 |
| ACAGTAACATGGACCGGTTTTCCCGGTAATCCGTATTTGCA (site ACAGTATCTTG) | 1.65 |
| ACAGTAACATGGACCGGTTTTCCCGGTAATCCGTATTTGGA (site ACAGTAACTTC) | 2.19 |
| ACAGTAACATGGACCGGTTTTCCCGGTAATCCGTATTTGGA (site ACAGTATCTTG) | 0 |
| ACAGTATCATGGACCGGTTTTCCCGGTAATCCGTATTTGGA (site ACAGTATCTTA) | 2.36 |
| ACAGTATCATGGACCGGTTTTCCCGGTAATCCGTATTTGGA (site ACAGTATCTTC) | 2.88 |
| ACAGTATCATGGACCGGTTTTCCCGGTAATCCGTATTTGGA (site ACAGTATCTTG) | 2.02 |
| ACAGTATCATGGACCGGTTTTCCCGGTAATCCGTATTTGGA (site ACAGTATCTTT) | 2.61 |
| ACAGTGGCATGGACCGGTTTTCCCGGTAATCCGTATTTGCT (site ACAGTGGCTAG) | 2.32 |
| ACAGTTCCATGGACCGGTTTTCCCGGTAATCCGTATTTGAA (site ACAGTTCCTTT) | 1.36 |
| ACAGTTTCATGGACCGGTTTTCCCGGTAATCCGTATTTGTA (site ACAGTATCTTG) | 1.19 |
| ACAGTTTCATGGACCGGTTTTCCCGGTAATCCGTATTTGTA (site ACAGTTTCTTA) | 2.49 |
| ACATAGACATGGACCGGTTTTCCCGGTAATCCGTATTTGGG (site ACATAGACTCC) | 0.469 |
| ACATAGACATGGACCGGTTTTCCCGGTAATCCGTATTTGGG (site ACCTAGACTCC) | 0.0175 |
| ACATAGACATGGACCGGTTTTCCCGGTAATCCGTATTTGGG (site ACGTAGACTCC) | 0.00831 |
